Like-named read-outs stand apart in the source and are kept apart here.
Tests used:
[1] = molecular target: T1, HCV NS5B polymerase 1a-H77 (Hepatitis C virus genotype 1a, UniProt P27958); assay: biochemical; parameters: species or system HCV genotype 1a; settings: enzyme, strain 1a H77; read-out: HCV Polymerase Strain 1a H77 IC50
T1 construct: six-histidine tag; made in house; host or cells: E. coli
In short: (§1)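 Incorporation of [3H]UTP (0.284 μM), alongside 20 μM each CTP and ATP, into RNA copied from a 5 nM 2.1 kb genotype 1b negative-strand template was measured after 3 h at 30° C using purified His-tagged NS5B truncated at residue 570. Product was spermine-precipitated, filtered and scintillation-counted; nonlinear regression gave IC50.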

[2] = molecular target: T2, HCV NS5B polymerase 1a-H77-C316Y (Hepatitis C virus genotype 1a, UniProt P27958, C2736Y); assay: biochemical; parameters: species or system HCV genotype 1a
T2 construct: six-histidine tag; made in house; host or cells: E. coli
In short: as §1

[3] = test system: HCV NS5B polymerase 1a-H77-C316Y; assay: biochemical; parameters: species or system HCV genotype 1a; settings: ratio of enzyme IC50s, 1a H77-C316Y / 1a H77
In short: as §1

[4] = molecular target: T3, HCV NS5B polymerase 1b BK strain (Hepatitis C virus genotype 1b, UniProt P26663); assay: HCV NS5B polymerase enzymatic inhibition assay, strain 1b BK; type: biochemical; settings: enzyme, strain 1b BK; read-out: HCV Polymerase Strain 1b BK IC50
T3 construct: six-histidine tag; made in house; host or cells: E. coli
In short: as §1

[5] = test system: HCV 1a-H77 subgenomic replicon; assay: microbe, parasite or virus in culture; type: cell-based, HCV genotype 1a; settings: Hepatitis C virus, stable replicon
[6] = test system: HCV 1b-BB7 subgenomic replicon; assay: microbe, parasite or virus in culture; type: cell-based, HCV genotype 1b; settings: Hepatitis C virus, stable replicon
[7] = test system: chimeric replicon with 2a-J6CF-derived NS5B; assay: microbe, parasite or virus in culture; type: cell-based, HCV genotype 2a; settings: Hepatitis C virus, read-out: 2a chimera 5% FBS EC50
[8] = test system: chimeric replicon with genotype 2b NS5B; assay: microbe, parasite or virus in culture; type: cell-based, HCV genotype 2b; settings: Hepatitis C virus, read-out: 2b chimera 5% FBS EC50
[9] = test system: chimeric replicon with genotype 3a NS5B; assay: microbe, parasite or virus in culture; type: cell-based, HCV genotype 3a; settings: Hepatitis C virus, read-out: 3a chimera 5% FBS EC50
[10] = test system: chimeric replicon with genotype 4a NS5B; assay: microbe, parasite or virus in culture; type: cell-based, HCV genotype 4a; settings: Hepatitis C virus, read-out: 4a chimera 5% FBS EC50
[11] = 5% FBS, absence of human plasma, read-out: Stable Replicon 1a H77 5% FBS EC50
[12] = strain 1a H77, 5% FBS + 40% human plasma, read-out: 1a H77 5% FBS + 40% Human Plasma EC50
[13] = strain 1a H77, 5% FBS, no human plasma, read-out: 1a H77 5% FBS EC50
[14] = strain 1a H77, 5% FBS, read-out: 1a H77 5% FBS EC50
[15] = strain 1b BB7, 5% FBS + 40% human plasma, read-out: 1b BB7 5% FBS + 40% Human Plasma EC50
[16] = strain 1b BB7, 5% FBS, no human plasma, read-out: 1b BB7 5% FBS EC50
[17] = strain 1b BB7, 5% FBS, read-out: 1b BB7 5% FBS EC50

T3 sequence (P26663 2420-2989): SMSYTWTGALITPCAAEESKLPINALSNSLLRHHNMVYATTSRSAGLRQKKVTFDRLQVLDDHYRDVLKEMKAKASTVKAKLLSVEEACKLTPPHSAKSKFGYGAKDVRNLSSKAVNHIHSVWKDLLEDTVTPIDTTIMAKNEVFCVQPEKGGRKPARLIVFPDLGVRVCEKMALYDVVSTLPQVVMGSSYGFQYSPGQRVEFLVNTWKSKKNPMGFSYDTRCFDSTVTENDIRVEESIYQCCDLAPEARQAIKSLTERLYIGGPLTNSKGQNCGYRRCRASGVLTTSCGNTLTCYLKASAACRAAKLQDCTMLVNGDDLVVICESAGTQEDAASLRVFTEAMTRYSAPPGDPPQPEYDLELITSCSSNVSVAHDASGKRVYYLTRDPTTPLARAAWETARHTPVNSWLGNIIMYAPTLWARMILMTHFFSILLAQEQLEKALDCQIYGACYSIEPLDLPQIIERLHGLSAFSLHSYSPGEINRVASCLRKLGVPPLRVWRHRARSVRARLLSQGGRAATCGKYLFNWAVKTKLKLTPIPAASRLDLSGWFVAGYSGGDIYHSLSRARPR
T2 sequence (P27958 2421-2990 C2736Y): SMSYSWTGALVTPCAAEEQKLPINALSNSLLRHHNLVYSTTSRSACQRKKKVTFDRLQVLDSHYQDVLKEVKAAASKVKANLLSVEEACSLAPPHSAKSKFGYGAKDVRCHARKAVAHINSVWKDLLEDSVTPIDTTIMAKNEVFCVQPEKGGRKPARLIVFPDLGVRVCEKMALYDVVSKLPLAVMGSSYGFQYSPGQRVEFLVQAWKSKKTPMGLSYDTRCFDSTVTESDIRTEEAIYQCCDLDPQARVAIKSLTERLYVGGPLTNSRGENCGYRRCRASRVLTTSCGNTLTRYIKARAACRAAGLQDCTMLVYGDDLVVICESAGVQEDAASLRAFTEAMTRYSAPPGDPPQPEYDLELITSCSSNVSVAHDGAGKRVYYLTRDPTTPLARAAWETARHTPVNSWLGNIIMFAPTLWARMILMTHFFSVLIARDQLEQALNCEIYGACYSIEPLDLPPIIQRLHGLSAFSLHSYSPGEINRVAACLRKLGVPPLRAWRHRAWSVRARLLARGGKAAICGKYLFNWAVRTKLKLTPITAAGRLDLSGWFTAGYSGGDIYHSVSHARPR
T1 sequence (P27958 2421-2990): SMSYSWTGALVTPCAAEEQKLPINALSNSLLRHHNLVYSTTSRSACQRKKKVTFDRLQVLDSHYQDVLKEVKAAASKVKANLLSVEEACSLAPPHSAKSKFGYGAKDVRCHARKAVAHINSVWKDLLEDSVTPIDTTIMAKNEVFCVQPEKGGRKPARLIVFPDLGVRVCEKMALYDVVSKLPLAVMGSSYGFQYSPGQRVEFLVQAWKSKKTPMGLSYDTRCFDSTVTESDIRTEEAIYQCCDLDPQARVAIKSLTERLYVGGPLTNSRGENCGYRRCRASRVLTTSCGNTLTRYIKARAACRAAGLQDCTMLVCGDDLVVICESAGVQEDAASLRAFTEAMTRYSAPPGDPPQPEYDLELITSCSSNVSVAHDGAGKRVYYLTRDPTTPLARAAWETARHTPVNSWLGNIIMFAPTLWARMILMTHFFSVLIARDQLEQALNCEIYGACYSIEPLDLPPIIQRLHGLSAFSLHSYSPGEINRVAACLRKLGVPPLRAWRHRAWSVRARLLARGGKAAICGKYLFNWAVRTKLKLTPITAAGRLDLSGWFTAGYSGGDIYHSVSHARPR

| SMILES | IC50 [1] | IC50 [2] | C316Y/1a Fold Resistance [3] | IC50 [4] | EC50 [5, 11] | EC50 [5, 12] | EC50 [5, 13] | EC50 [5, 14] | EC50 [6, 15] | EC50 [6, 16] | EC50 [6, 17] | EC50 [7] | EC50 [8] | EC50 [9] | EC50 [10] |
| --- | --- | --- | --- | --- | --- | --- | --- | --- | --- | --- | --- | --- | --- | --- | --- |
| CCCCN(c1cc2oc(-c3ccc(F)cc3)c(-c3ncc[nH]3)c2cc1C1CC1)S(C)(=O)=O [Example 39, N-butyl-N-[5-cyclopropyl-2-(4-fluorophenyl)-3-(1H-imidazol-2-yl)-1-benzofuran-6-yl]methanesulfonamide] | 5 nM | 78 nM | 16 fold | 17 nM | 33.1 nM | 132 nM | 33.1 nM | 33.1 nM | 59 nM | 29.7 nM | 29.7 nM | 105 nM | 133 nM | 28.4 nM | 187 nM |
| CS(=O)(=O)N(CCCC(F)(F)F)c1cc2oc(-c3ccc(F)cc3)c(-c3ncc[nH]3)c2cc1C1CC1 [Example 44, N-[5-cyclopropyl-2-(4-fluorophenyl)-3-(1H-imidazol-2-yl)-1-benzofuran-6-yl]-N-(4,4,4-trifluorobutyl)methanesulfonamide] | 5 nM | 105 nM | 21 fold | 19 nM | 23.7 nM | 420 nM | 23.7 nM | 23.7 nM | 81 nM | 16.1 nM | 16.1 nM | 93.7 nM | 97.7 nM | 15.1 nM | 176 nM |
| CC(=O)OCCCCCN(c1cc2oc(-c3ccc(F)cc3)c(-c3ncc[nH]3)c2cc1C1CC1)S(C)(=O)=O [Example 46, 5-{[5-cyclopropyl-2-(4-fluorophenyl)-3-(1H-imidazol-2-yl)-1-benzofuran-6-yl](methylsulfonyl)amino}pentyl acetate] | 4.5 nM | 98 nM | 22 fold | 11 nM | 4.5 nM | 112 nM | 4.5 nM | 4.5 nM | 36 nM | 4.7 nM | 4.6 nM | 27.5 nM | 23.7 nM | 2.7 nM | 31.1 nM |
| CS(=O)(=O)N(CCC1CCOCC1)c1cc2oc(-c3ccc(F)cc3)c(-c3ncc[nH]3)c2cc1C1CC1 [Example 48, N-[5-cyclopropyl-2-(4-fluorophenyl)-3-(1H-imidazol-2-yl)-1-benzofuran-6-yl]-N-[2-(tetrahydro-2H-pyran-4-yl)ethyl]methanesulfonamide] | 7.7 nM | 74 nM | 10 fold | 23 nM | 11.4 nM | 147 nM | 11.4 nM | 11.4 nM | 75 nM | 8.4 nM | 8.5 nM | 83.7 nM | 69.2 nM | 10 nM | 46.4 nM |
| CS(=O)(=O)N(CC1CC1)c1cc2oc(-c3ccc(F)cc3)c(-c3ncc[nH]3)c2cc1C1CC1 [Example 53, N-[5-cyclopropyl-2-(4-fluorophenyl)-3-(1H-imidazol-2-yl)-1-benzofuran-6-yl]-N-(cyclopropylmethyl)methanesulfonamide] | 4.9 nM | 223 nM | 46 fold | 245 nM | 111 nM | 1010 nM | 111 nM | 111 nM | 224 nM | 52 nM | 52 nM | 154 nM | 267 nM | 23 nM | 379 nM |
| CC(C)=CCN(c1cc2oc(-c3ccc(F)cc3)c(-c3ncc[nH]3)c2cc1C1CC1)S(C)(=O)=O [Example 54, N-[5-cyclopropyl-2-(4-fluorophenyl)-3-(1H-imidazol-2-yl)-1-benzofuran-6-yl]-N-(3-methylbut-2-en-1-yl)methanesulfonamide] | 4.5 nM | 192 nM | 43 fold | 293 nM | 89 nM | 935 nM | 89 nM | 89 nM | 734 nM | 64 nM | 64 nM | 267 nM | 601 nM | 51 nM | 635 nM |
| CS(=O)(=O)N(CC1CC1(F)F)c1cc2oc(-c3ccc(F)cc3)c(-c3ncc[nH]3)c2cc1C1CC1 (stereo not drawn) [Example 55, N-[5-cyclopropyl-2-(4-fluorophenyl)-3-(1H-imidazol-2-yl)-1-benzofuran-6-yl]-N-[(2,2-difluorocyclopropyl)methyl]methanesulfonamide] | 5 nM | 366 nM | 73 fold | 28 nM | 68 nM | 1020 nM | 68 nM | 68 nM | 363 nM | 37 nM | 37 nM | 184 nM | 348 nM | 18 nM | 557 nM |
| CCN(c1cc2oc(-c3ccc(F)cc3)c(-c3ncc[nH]3)c2cc1C1CC1)S(C)(=O)=O [Example 56, N-[5-cyclopropyl-2-(4-fluorophenyl)-3-(1H-imidazol-2-yl)-1-benzofuran-6-yl]-N-ethylmethanesulfonamide] | 3.5 nM | 220 nM | 64 fold | 17 nM | 27.8 nM | 192 nM | 27.8 nM | 27.8 nM | 62 nM | 12.1 nM | 12.1 nM | 49.3 nM | 42.6 nM | 9.6 nM | 81.9 nM |
| C=CCN(c1cc2oc(-c3ccc(F)cc3)c(-c3ncc[nH]3)c2cc1C1CC1)S(C)(=O)=O [Example 57, N-allyl-N-[5-cyclopropyl-2-(4-fluorophenyl)-3-(1H-imidazol-2-yl)-1-benzofuran-6-yl]methanesulfonamide] | 3 nM | 232 nM | 77 fold | 11 nM | 35.2 nM | 306 nM | 35.2 nM | 35.2 nM | 69 nM | 17.7 nM | 17.7 nM | 51.5 nM | 72.4 nM | 9.1 nM | 138 nM |
| CS(=O)(=O)N(CCN1CCOCC1)c1cc2oc(-c3ccc(F)cc3)c(-c3ncc[nH]3)c2cc1C1CC1 [Example 58, N-[5-cyclopropyl-2-(4-fluorophenyl)-3-(1H-imidazol-2-yl)-1-benzofuran-6-yl]-N-[2-(morpholin-4-yl)ethyl]methanesulfonamide] | 7.3 nM | 133 nM | 18 fold | 29 nM | 21.8 nM | 333 nM | 21.8 nM | 21.8 nM | 193 nM | 11.9 nM | 11.9 nM | 78.9 nM | 130 nM | 9.8 nM | 130 nM |
| CN(C)CCCN(c1cc2oc(-c3ccc(F)cc3)c(-c3ncc[nH]3)c2cc1C1CC1)S(C)(=O)=O [Example 59, N-[5-cyclopropyl-2-(4-fluorophenyl)-3-(1H-imidazol-2-yl)-1-benzofuran-6-yl]-N-[3-(dimethylamino)propyl]methanesulfonamide] | 13.4 nM | 1500 nM | 112 fold | 56 nM | 85.1 nM | 159 nM | 85.1 nM | 85.1 nM | 20 nM | 11.2 nM | 11.2 nM | 65 nM | 127 nM | 10.3 nM | 424 nM |
